From the supplement of paper PMC4862054

Experiments:
Conditions in all cases: incubation time: 72 h
CAL-120 = assay: normalised response (% of control), CellTox Green; higher = less cell death (100 = DMSO, 0 = benzethonium chloride kill control)
Summary of the method: (§1)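 Two readouts were taken after 72 h: CellTox Green fluorescence (485/520 nm) first, then CellTiter-Glo luminescence after 10 min at room temperature. Breast cancer cell lines had been seeded as 20 µl suspension into 384-well plates holding compound at 5 concentrations in 10-fold steps across a compound-specific 10,000-fold range. Each value is a normalised signal at a single concentration, with plates scaled to 0.1 % DMSO (100) and a positive kill control (0).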

CAL-148 = assay: as above
Summary of the method: as §1

HCC1937 = assay: as above
Summary of the method: as §1

HDQ-P1 = assay: as above
Summary of the method: as §1

MCF-10A = assay: as above
Summary of the method: as §1

CAL-85-1 = assay: normalised response (% of control), CellTiter-Glo; higher = more viable cells (100 = DMSO, 0 = benzethonium chloride kill control)
Protocol: (§2)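 DSRT, 72 h incubation, CellTox Green / CellTiter-Glo readout. Signal is normalised to DMSO and benzethonium chloride controls. Value is the normalised response at the highest dose.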

MFM-223 = assay: as above
Protocol: as §2

Row | Compound | normalised response (CAL-120) [%] | normalised response (CAL-148) [%] | normalised response (HCC1937) [%] | normalised response (HDQ-P1) [%] | normalised response (MCF-10A) [%] | normalised response (CAL-85-1) [%] | normalised response (MFM-223) [%]
1 | CN1CCC(COc2cnc(-c3cccc(Cn4nc(-c5cccc(C#N)c5)ccc4=O)c3)nc2)CC1 (1000 nM) | 95.6 | 103 | 123 | 95.5 | 88.3 | 99.8 | 84.9
2 | CN(C)C/C=C/C(=O)Nc1cc2c(Nc3ccc(F)c(Cl)c3)ncnc2cc1O[C@H]1CCOC1 [Afatinib] (1000 nM) | 94.1 | 94.1 | – | 93.8 | 99.6 | 61.7 | 93
3 | CN1CC[C@H](c2c(O)cc(O)c3c(=O)cc(-c4ccccc4Cl)oc23)[C@H](O)C1 [Alvocidib] (10000 nM) | 81.8 | 92 | 92.3 | 71.5 | -1.97 | 7.8 | 10
4 | Nc1nc(Cl)nc2c1ncn2[C@H]1C[C@H](O)[C@@H](CO)O1 [Cladribine] (1000 nM) | 101 | 73.7 | 92.2 | 95.9 | 100 | 75.5 | 109
5 | Nc1ccn([C@@H]2O[C@H](CO)[C@@H](O)[C@@H]2O)c(=O)n1 [Cytarabine] (10000 nM) | 108 | 69.2 | 96.1 | 111 | 48.4 | 69.3 | 106
6 | Cc1c2oc3c(C)ccc(C(=O)N[C@@H]4C(=O)N[C@H](C(C)C)C(=O)N5CCC[C@H]5C(=O)N(C)CC(=O)N(C)[C@@H](C(C)C)C(=O)O[C@@H]4C)c3nc-2c(C(=O)N[C@@H]2C(=O)N[C@H](C(C)C)C(=O)N3CCC[C@H]3C(=O)N(C)CC(=O)N(C)[C@@H](C(C)C)C(=O)O[C@@H]2C)c(N)c1=O [Dactinomycin] (1000 nM) | 101 | 79.9 | 124 | 94.9 | 41.4 | 5.09 | 11.9
7 | COc1cccc2c1C(=O)c1c(O)c3c(c(O)c1C2=O)C[C@@](O)(C(=O)CO)C[C@@H]3O[C@H]1C[C@H](N)[C@H](O)[C@H](C)O1 [Doxorubicin] (1000 nM) | 92.7 | 66.4 | 148 | 120 | 129 | 17.7 | 72.6
8 | Cc1ccc(F)c(NC(=O)Nc2ccc(-c3cccc4[nH]nc(N)c34)cc2)c1 [Linifanib] (1000 nM) | 97.9 | 95.7 | 104 | – | 90 | 101 | 108
9 | S=c1[nH]cnc2nc[nH]c12 [Mercaptopurine] (10000 nM) | 101 | 96.1 | 89.1 | 102 | 83.9 | 79.3 | 85.5
10 | Clc1ccc(C(c2ccccc2Cl)C(Cl)Cl)cc1 (configuration not stated) [Mitotane] (10000 nM) | 95.6 | 98.1 | – | 106 | 100 | 97 | 97
11 | COc1cccc2cc(-c3nc([C@H]4CC[C@H](C(=O)O)CC4)n4ncnc(N)c34)[nH]c12 [OSI-027] (10000 nM) | 96.9 | 72.5 | 112 | 106 | 101 | 30.1 | 28.5
12 | OC[C@H]1O[C@@H](n2cnc3c2N=CNC[C@H]3O)C[C@@H]1O [Pentostatin] (10000 nM) | 104 | 102 | 103 | 101 | 103 | 99.2 | 99.3
13 | N#CC[C@H](C1CCCC1)n1cc(-c2ncnc3[nH]ccc23)cn1 [Ruxolitinib] (10000 nM) | 98.7 | 95.1 | – | – | 90 | 98.5 | 73.2
14 | C=CC[C@@H]1/C=C(\C)C[C@H](C)C[C@H](OC)[C@H]2O[C@@](O)(C(=O)C(=O)N3CCCC[C@H]3C(=O)O[C@H](/C(C)=C/[C@@H]3CC[C@@H](O)[C@H](OC)C3)[C@H](C)[C@@H](O)CC1=O)[C@H](C)C[C@@H]2OC [Tacrolimus] (10000 nM) | 97.6 | 95.8 | 93.6 | 88.2 | 70.6 | 99.6 | 81.2
15 | C=CCNC1=C2C[C@@H](C)C[C@H](OC)[C@H](O)[C@@H](C)/C=C(\C)[C@H](OC(N)=O)[C@@H](OC)/C=C\C=C(/C)C(=O)NC(=CC1=O)C2=O [Tanespimycin] (10000 nM) | 84.2 | 39.8 | 102 | 55.1 | 39.1 | 21.2 | 38.1
16 | CO[C@H]1C[C@@H]2CC[C@@H](C)[C@@](O)(O2)C(=O)C(=O)N2CCCC[C@H]2C(=O)O[C@H]([C@H](C)C[C@@H]2CC[C@@H](OC(=O)C(C)(CO)CO)[C@H](OC)C2)CC(=O)[C@H](C)/C=C(\C)[C@@H](O)[C@@H](OC)C(=O)[C@H](C)C[C@H](C)/C=C/C=C/C=C/1C [Temsirolimus] (100 nM) | 102 | 87.2 | 110 | 109 | 91.2 | 60.5 | 67.7
17 | C[C@]1(c2nc3c(C(N)=O)cccc3[nH]2)CCCN1 [Veliparib] (10000 nM) | 98.2 | – | 110 | 90.5 | 107 | 104 | 97.3
18 | CC[C@]1(O)C[C@@H]2CN(CCc3c([nH]c4ccccc34)[C@@](C(=O)OC)(c3cc4c(cc3OC)N(C)[C@H]3[C@@](O)(C(=O)OC)[C@H](OC(C)=O)[C@]5(CC)C=CCN6CC[C@]43[C@@H]65)C2)C1 [Vinblastine] (1000 nM) | 89.8 | 89.4 | 92.1 | 101 | 50.5 | 50.3 | 44.6
19 | CS(=O)(=O)c1ccc(C(=O)Nc2ccc(Cl)c(-c3ccccn3)c2)c(Cl)c1 [Vismodegib] (10000 nM) | 100 | 105 | 84.1 | 113 | 85.5 | 103 | 91.4
